Among the data in ChEMBL document CHEMBL1149358, “Synthesis and dipeptidyl peptidase inhibition of N-(4-substituted-2,4-diaminobutanoyl)piperidines” (Bioorg Med Chem Lett, 2006) are IC50, Selectivity index and Ki values, retold here.

For one assay, the target named is Dipeptidyl peptidase 4 (Homo sapiens, UniProt P27487). The experiment in a line: Inhibition of DPP4.
For another assay, the target named is Dipeptidyl peptidase 8 (Homo sapiens, UniProt Q6V1X1). The assay is described as follows: Inhibition of DPP8.
Dipeptidyl peptidase 8, sequence (Q6V1X1 whole entry): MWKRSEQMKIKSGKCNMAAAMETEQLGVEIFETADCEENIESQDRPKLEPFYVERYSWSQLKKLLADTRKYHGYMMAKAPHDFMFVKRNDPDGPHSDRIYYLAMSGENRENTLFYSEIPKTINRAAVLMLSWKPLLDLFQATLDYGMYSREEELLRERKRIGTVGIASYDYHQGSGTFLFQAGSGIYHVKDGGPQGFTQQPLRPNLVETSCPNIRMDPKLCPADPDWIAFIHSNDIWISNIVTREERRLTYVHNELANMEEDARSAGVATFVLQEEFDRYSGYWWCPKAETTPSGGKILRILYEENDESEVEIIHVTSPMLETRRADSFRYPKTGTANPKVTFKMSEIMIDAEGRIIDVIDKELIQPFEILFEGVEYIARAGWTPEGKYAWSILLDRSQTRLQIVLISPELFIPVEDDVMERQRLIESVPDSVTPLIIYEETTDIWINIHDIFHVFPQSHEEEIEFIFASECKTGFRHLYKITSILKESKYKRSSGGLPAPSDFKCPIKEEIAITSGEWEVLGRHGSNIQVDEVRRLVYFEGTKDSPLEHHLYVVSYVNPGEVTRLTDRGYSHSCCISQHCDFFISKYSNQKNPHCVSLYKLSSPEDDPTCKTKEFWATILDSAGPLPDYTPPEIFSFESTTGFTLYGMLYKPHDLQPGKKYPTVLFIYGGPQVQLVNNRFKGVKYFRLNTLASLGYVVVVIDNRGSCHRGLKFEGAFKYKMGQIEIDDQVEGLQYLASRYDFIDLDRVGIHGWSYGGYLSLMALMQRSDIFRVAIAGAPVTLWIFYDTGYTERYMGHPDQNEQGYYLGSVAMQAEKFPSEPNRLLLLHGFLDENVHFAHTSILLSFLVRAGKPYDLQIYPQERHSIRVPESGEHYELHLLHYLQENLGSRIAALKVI
The species entered for another assay is Homo sapiens. The assay is described as follows: Selectivity for DPP2 over DPP8.
Assay [1] concerns the target T1, Dipeptidyl peptidase 2 (Homo sapiens, UniProt Q9UHL4). The assay is described as follows: Inhibition of DPP II.
Assay [2] deals with T1, Dipeptidyl peptidase 2. The assay is described as follows: Inhibition of DPP2.

Dipeptidyl peptidase 4, sequence (P27487 whole entry): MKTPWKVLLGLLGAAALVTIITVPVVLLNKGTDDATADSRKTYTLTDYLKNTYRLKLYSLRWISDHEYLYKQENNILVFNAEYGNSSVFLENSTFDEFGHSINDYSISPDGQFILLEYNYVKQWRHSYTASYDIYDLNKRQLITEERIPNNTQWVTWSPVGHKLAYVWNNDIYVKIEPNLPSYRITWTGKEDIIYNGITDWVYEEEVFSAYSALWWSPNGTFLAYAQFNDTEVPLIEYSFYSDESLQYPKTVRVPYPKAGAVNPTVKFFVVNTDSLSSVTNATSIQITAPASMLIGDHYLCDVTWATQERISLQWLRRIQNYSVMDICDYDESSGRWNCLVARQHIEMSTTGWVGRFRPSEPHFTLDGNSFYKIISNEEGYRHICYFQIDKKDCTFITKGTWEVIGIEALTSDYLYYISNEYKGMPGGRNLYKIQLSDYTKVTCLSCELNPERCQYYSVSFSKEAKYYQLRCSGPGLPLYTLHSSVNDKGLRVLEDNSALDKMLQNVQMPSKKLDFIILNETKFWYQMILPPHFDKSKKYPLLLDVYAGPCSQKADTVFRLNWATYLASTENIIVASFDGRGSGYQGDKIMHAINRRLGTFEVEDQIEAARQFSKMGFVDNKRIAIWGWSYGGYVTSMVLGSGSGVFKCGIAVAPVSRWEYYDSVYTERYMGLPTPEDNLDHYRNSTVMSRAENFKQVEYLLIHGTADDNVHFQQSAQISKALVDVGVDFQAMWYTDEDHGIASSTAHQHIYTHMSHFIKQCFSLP

At Dipeptidyl peptidase 4, `C[C@H](C[C@H](N)C(=O)N1CCCCC1)NCc1ccc(Cl)cc1` yielded a half-maximal inhibitory concentration (IC50) of more than 250 µM.

On to `C[C@@H](C[C@H](N)C(=O)N1CCCCC1)NCc1ccc(Cl)cc1`, for which the IC50 against Dipeptidyl peptidase 4 was 325 µM.

As to `CC[C@@H](C[C@H](N)C(=O)N1CCCCC1)NCc1ccc(Cl)cc1`, the IC50 against Dipeptidyl peptidase 4 and on Dipeptidyl peptidase 8 was more than 100 µM throughout.

Regarding `N[C@@H](C[C@H](Cc1ccccc1)NCc1ccc(Cl)cc1)C(=O)N1CCCCC1`, the IC50 is more than 125 µM against Dipeptidyl peptidase 4 and more than 100 µM at Dipeptidyl peptidase 8.

For `N[C@@H](C[C@@H](Cc1ccccc1)NCc1ccc(Cl)cc1)C(=O)N1CCCCC1`, the IC50 was more than 125 µM against Dipeptidyl peptidase 4 and more than 500 µM at Dipeptidyl peptidase 8.

As to `CC(C)[C@@H](C[C@H](N)C(=O)N1CCCCC1)NCc1ccc(Cl)cc1`, the concentration for half-maximal inhibition (IC50) at Dipeptidyl peptidase 4 is more than 125 µM; on Dipeptidyl peptidase 8, more than 100 µM.

Consider `N[C@@H](CCNCc1ccc(Cl)cc1)C(=O)N1CCCCC1`, for which the IC50 at Dipeptidyl peptidase 4 was determined as 196 µM; on Dipeptidyl peptidase 8 it was 142 µM; on Dipeptidyl peptidase 2 [2], 0.00022 µM. The Selectivity index in the assay listed under Homo sapiens was more than 10000. The same molecule showed a Ki on Dipeptidyl peptidase 2 [1] of 0.082 nM.

For the molecule `CCC(C)[C@@H](C[C@H](N)C(=O)N1CCCCC1)NCc1ccc(Cl)cc1` (some centres not stated), the IC50 at Dipeptidyl peptidase 4 was 234 µM; against Dipeptidyl peptidase 8 it was more than 100 µM.
